The source of these data is patent publication US5541232A, “Treatment of multidrug resistant diseases” (Chemex Pharmaceuticals, Inc., priority 1994, dated 1996).

For one data set, the system named is CAK-1 Renal cancer cells. The data set can be described thus: in vitro cytotoxicity anti tumor activity. As to conditions: read-out: IC50. It counts as cell-based.
A short description of a further data set: stability to oxidation. It counts as physicochemical. Conditions: for example, by air. From the text: The pH of the formulation is important in assuring stability of NDGA or its analogue as well as assuring that the formulation is physiologically acceptable to the patient. […] Such oxidation can result in discoloration of the formulation rendering it unacceptable for pharmaceutical use. […] Therefore, it is preferred that if the formulation is to be exposed to oxidizing conditions the pH to be maintained below about 7 and preferably below about 6 in order to provide maximum stability for the compound against oxidation. However, if the oxidizing conditions can be avoided, for example, by storage of the formulation under an inert atmosphere such as nitrogen, a higher pH can be used. The pH of the formulation may be maintained through the use of toxicologically-acceptable buffers. Such buffers are well-known in the pharmaceutical formulation art, and include hydrochloric acid buffer, acid phthalate buffer, phosphate buffer and citric acid/sodium citrate buffer.

Data set [1] deals with KB-3-1 human cervical carcinoma cells. Description: modulation of VBL toxicity (colony formation), KB-3-1. It is filed as cell-based. Conditions: 25 μM masoprocol, 10 days, 37° C. The method, then: (§1) Drug-sensitive KB-3-1 cells and the drug resistant subline (KB-GRC-1) were obtained from Dr. Igor Roninson (University of Illinois, College of Medicine, Chicago, Ill.). Cells were maintained in Dulbecco's modified Eagle's medium supplemented with 10% fetal bovine serum and 2 mM glutamine. The KB-GRC-1 cells were maintained in medium supplemented with 6 ng/ml colchicine.
To test the modulation of VBL toxicity by masoprocol, cells which had been seeded at 200-300 cells/dish were incubated in media containing various concentrations of VBL in the absence or presence of 25 μM masoprocol. After an incubation period of 10 days at 37° C. the cells were fixed and stained, and the number of colonies per dish were counted and expressed as a percent of the number of colonies formed in control conditions. 1.

A further data set has as its system P-glycoprotein. Description: P-glycoprotein substrate. It counts as cell-based, human. Conditions: inferred from colony formation in GRC-1 vs KB-3-1. The text has this: (§2) To investigate whether masoprocol modulates multidrug resistance, a line of multidrug resistant (GRC-1) cells which were derived from parenteral drug sensitive human cervical carcinoma (KB-3-1) cells by transfection of the mdr1 genes were employed. Such transfection was by the method set forth in Choi, et al., Cell 53:519-529, 1989. These cell lines differ only with respect to the over-expression of P-glycoprotein. These tests were designed to examine whether masoprocol modulates tumor cell drug resistance by interfering with P-glycoprotein function. […] See, Regulation of initial vinblastine influx by P-glycoprotein, Shalinsky, et al., cited above.
(§3) First, cells which had been seeded at 200-300 cells/dish were incubated in media containing masoprocol or VBL. After an incubation period of 10 days at 37° C. the cells were fixed with methanol and stained with Giemsa, and the number of colonies per dish were counted and expressed as a percent of the number of colonies in control conditions. […] Parenthesis indicate standard deviations determined from replicate experiments.

The subject of data set [2] is GRC-1 multidrug resistant human cervical carcinoma cells. The data set can be described thus: inhibition of colony formation, GRC-1. It counts as cell-based. As to conditions: Homo sapiens, 240 h, read-out: IC50 (Masoprocol), 50% inhibition of colony formation; 10 days, 37° C.; parenthesis: standard deviation.
Source text: as §2
Masoprocol was provided by Chemex Pharmaceuticals, Inc. (Fort Lee, N.J.). Tritiated vinblastine ([^3 H]VBL) (10 Ci mmol^-1) was purchased from Moravek Biochemicals (Brea, Calif.), stored in the dark at -80° C. and protected from light during the experiments. Dipyridamole (DPM) was provided by Boerhinger Ingelheim Pharmaceuticals, Inc. (Ridgefield, Conn.).
as §1, §3

The test system is the same in data set [3]. Description: steady state accumulation of VBL, GRC-1. It is filed as cell-based. The method, then: (§4) At the desired time, the medium was aspirated and cells washed 5 times with ice cold PBS. Cells were digested overnight in 1N NaOH, at which time aliquots were used to determine protein content and radioactivity. The final concentration of VBL was 6 nM.
(§5) Cells were incubated for one hour with media containing either tritiated vinblastine (^3 H]VBL) alone or containing [^3 H]VBL with 50 μM masoprocol. Cells were then washed with ice cold PBS and the amount of VBL accumulated in cells was determined using a scintillation counter. In FIG. 1 each data point represents the mean of replicate experiments performed with duplicate cultures. Vertical bars are +/- S.D.

The subject of data set [4] is Lung (NCI-H23) cancer cells. Description: in vitro cytotoxicity anti tumor activity. It counts as cell-based. As to conditions: Homo sapiens, read-out: IC50.
The test system of the next data set is Lung (LX-1) cancer cells. Description: in vitro cytotoxicity anti tumor activity. As to conditions: 1 h; One Hour Pulse Treatment; read-out: IC50. It counts as cell-based.
For data set [5], the system named is MCF7/ADR human breast adenocarcinoma cells. Description: flow cytometry P-glycoprotein function assay of doxorubicin efflux, MCF7/ADR (doxorubicin resistant). It is filed as cell-based. The method, then:
The following tests were preformed to determine the effect of NDGA on efflux of doxorubicin (hereinafter sometimes referred to as DOX) for doxorubicin sensitive MCF7/0 and doxorubicin resistant MCF7/ADR human breast adenocarcinoma cells in vitro.
The cells were exposed to 50 μg/ml NDGA for 24 hrs prior to loading with DOX (doxorubicin) at 37° C. […] PBS. Flow analysis of cell efflux of DOX was collected over 30 minutes using the time parameter.
Procedure for P-Glycoprotein (PGP) Function Assay of Doxorubicin Efflux is shown hereunder.
1. […] Store at room temperature.
2. Doxorubicin (GFW=580) Make a solution of doxorubicin to contain 10 μg/ml. Store frozen at 0° C.
4. NDGA (MW=302.36) Make a solution of NDGA to contain 50 μg/ml. Store frozen at 0° C.
5. MCF7/0 (Doxorubicin sensitive) and MCF7/ADR (Doxorubicin resistant), human breast adenocarcinoma cell lines.
1. Make up 2×10^6 cells per ml in PBS. Expose 1 ml of cells to 50 μg of NDGA for 24 hrs at 37° C. prior to loading with Doxorubicin.
2. Add 1 ml of 10 μg/ml doxorubicin, mix and divide into two aliquots.
4. Incubate both tubes at 37° C. for 30 minutes.
5. Centrifuge the tubes at 37° C. for 5 minutes on a fast spin to pellet cells. Resuspend in 1 ml of buffer.
6. Run immediately on the flow cytometer. Excitation 488 nm, emission 560-600 nm. Collect forward and 90° side scatter and PMT4 linear scale. Collect 10,000-50,000 events and calculate the mean channel fluorescence (MCF) for PMT4.
7. Run both samples as close together as possible, and avoid prolonged exposure to room temperature.
A general note: Flow cytometry measures light scatter and fluorescence of single cells or particles in a stream.

Data set [6] has as its system KB-3-1 human cervical carcinoma cells. Description: steady state accumulation of VBL, KB-3-1. It is filed as cell-based. The method, then: as §4, §5
Another data set has as its system SNB Glioblastoma cells. The data set can be described thus: in vitro cytotoxicity anti tumor activity. It is filed as cell-based. As to conditions: read-out: IC50.
The mark [7] stands for this setting: Continuous Drug Exposure, observation at 70 hours.
The mark [8] stands for this setting: one hour, masoprocol with [3H]VBL.

Entries after “also recorded” stand apart in the source; their conditions may differ. Read-outs that look alike come from different tables or passages of the source.

As usually defined, the IC50 is the concentration needed to halve the response being measured. With `C[C@H](Cc1ccc(O)c(O)c1)[C@@H](C)Cc1ccc(O)c(O)c1` [Masoprocol, meso-1,4-bis (3,4-dihydroxyphenyl)-2,3-dimethylbutane], the concentration for half-maximal inhibition (IC50) in the data set with CAK-1 Renal cancer cells (1 h, One Hour Pulse Treatment) worked out at 211 µM; in the data set on CAK-1 Renal cancer cells (setting [7]) it was 53.4 µM; in [2], 66.8 µM; in data set [4] (NCI-H23, 1 h, One Hour Pulse Treatment) it was 172 µM; in data set [4] (NCI-H23, Continuous Drug Exposure, observation at 70 hours), 0.08 µM; with Lung (LX-1) cancer cells, 18 µM. The IC50 amounted to 312 µM with SNB Glioblastoma cells (1 h, One Hour Pulse Treatment) and 0.08 µM in the data set with SNB Glioblastoma cells (setting [7]). In addition, the susceptibility to oxidation result in “stability to oxidation” is on record as “susceptible to oxidation”. The “effect on VBL cytotoxicity / colony formation” value in data set [1] was “increase in the cytotoxicity of VBL; also recorded: increases the cytotoxic effect of VBL”. Moreover, the P-glycoprotein substrate result in the data set with P-glycoprotein is on record as “not a substrate for P-glycoprotein”. Besides, the “steady state accumulation of VBL, compared with verapamil” value in data set [3] (50 μM masoprocol) and in data set [6] (50 μM masoprocol) was “comparable to that of 10 μM verapamil” throughout. In addition, the “steady state accumulation of VBL” value in data set [3] (setting [8]) and in data set [6] (setting [8]) was “dose-dependent increase in the steady state accumulation of VBL; also recorded: increases the steady state accumulation of VBL” each time. Also, the activation at 50 µg/mL in [5] (Homo sapiens, NCI/ADR-RES, 24 h, read-out: % DOX increase w/NDGA) was 25.6%. For the same compound, the “DOX loading / retention / efflux (in words)” value in data set [5] (resistant cells, listed as NDGA) is “augmentation of DOX retention; also recorded: will inhibit the efflux of DOX”.
